What all share (type): cell-based
One assay has as its system Escherichia coli. In words: Anti-microbial activity assay, MIC by broth microdilution. The conditions noted are these: Escherichia coli; strain UB1005; read-out: MIC Escherichia coli UB1005. A digest of the protocol: (§1)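 CAMHB microdilution (CLSI M7-A6); pneumococcal medium + 5% horse serum. 35° C, air, 20–24 h; visual endpoint = MIC.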
The next assay concerns Staphylococcus aureus. The assay is described as above. The note with it: Staphylococcus aureus; strain ATCC29213; read-out: MIC Staphylococcus aureus ATCC29213. A digest of the protocol: as §1
Assay [1] deals with Staphylococcus epidermidis. Described as above. The note with it: Staphylococcus epidermidis; strain ATCC14990. The method in brief: as §1
Another assay concerns Streptococcus pneumoniae. The assay is described as follows: Anti-microbial activity assay, MIC by broth microdilution (CAMHB with 5% horse serum). The note with it: Streptococcus pneumoniae; strain ATCC49619; CAMHB with 5% horse serum; read-out: MIC Streptococcus pneumoniae ATCC49619. A digest of the protocol: as §1
Assay [2] concerns Staphylococcus aureus and/or Staphylococcus epidermidis. The assay is described as follows: MIC summary statement, staphylococci. The note with it: generally, for Staphylococcus aureus and/or Staphylococcus epidermidis. The method, then: (§2) Anti-Microbial Activity Assay.
(§3) The antibacterial activity of compounds is determined by the minimal inhibitory concentration (MIC) method. MICs for all bacteria except pneumococci and Haemophilus influenzae are obtained by broth microdilution with cation-adjusted Mueller-Hinton broth (CAMHB; BBL), according to CLSI guidelines (National Committee for Clinical Laboratory Standards. 2003. Methods for dilution antimicrobial susceptibility tests for bacteria that grow aerobically, 5th ed.; approved standard M7-A6. National Committee for Clinical Laboratory Standards, Wayne, Pa.), with the following modifications: (i) for pneumococci CAMHB is supplemented with 5% (^v/v) horse serum; (ii) for Haemophilus influenzae CAMHB is supplemented with 5% (^v/v) Fildes enrichment (BBL) (Pankuch, G. A., Hoellman, D. B., Lin, G., Bajaksouzian, S., Jacobs, M. R., and Appelbaum, P. C. 1998. Activity of HMR 3647 compared to those of five agents against Haemophilus influenzae and Moraxella catarrhalis by MIC determination and time-kill assay. Antimicrob. Agents Chemother. 42:3032-3034). Microtiter plates are incubated at 35° C. in ambient air for 20 to 24 h, then inspected using an illuminated microtiter plate reader fitted with a magnifying mirror (MIC 2000; Cooke Laboratory Products, Alexandria, Va.). Compounds of the present invention are tested against several bacteria strains comprising some Acinetobacter baumannii, Enterococcus faecalis, Enterococcus faecitan, Escherichia coli, Haemophilus influenzae, Klebsiella pneumoniae, Pseudomonas aeruginosa, Staphylococcus aureus, Staphylococcus epidermidis and Streptococcus pneumoniae.

For assay [3], the system named is Staphylococcus aureus and/or Staphylococcus epidermidis and/or Streptococcus pneumoniae. The assay is described as follows: MIC summary statement, staphylococci and pneumococci. The note with it: generally, for Staphylococcus aureus and/or Staphylococcus epidermidis and/or Streptococcus pneumoniae. The method, then: as §2, §3
Assay [4] has as its system Staphylococcus aureus and/or Staphylococcus epidermidis and/or Streptococcus pneumoniae and/or Escherichia coli. The assay is described as follows: MIC summary statement, staphylococci, pneumococci and E. coli. The note with it: generally, for S. aureus and/or S. epidermidis and/or S. pneumoniae and/or E. coli; in most case of less than 2 mg/L. As to the method: as §2, §3

Values after ≈ are worked out from the molar mass of the structure shown.

Turning to `COc1ccc2ncc(SCCN3CCC(NC(=O)c4ccc5c(c4)NC(=O)CO5)CC3)nc2c1` [Example 36, 3-oxo-3,4-dihydro-2H-benzo[1,4]oxazine-6-carboxylic acid {1-[2-(7-methoxy-quinoxalin-2-ylsulfanyl)-ethyl]-piperidin-4-yl}-amide], the MIC was 4 µg/mL (≈ 8.1 µM) in the assay on Escherichia coli; no more than 2 µg/mL in the assay on Staphylococcus aureus; no more than 2 µg/mL in assay [1]; no more than 2 µg/mL with Streptococcus pneumoniae; no more than 2 µg/mL in assay [2]; no more than 2 µg/mL in assay [3]. The compound further had an MIC in assay [4] of no more than 4 µg/mL.
In the case of `COc1ccc2ncc(SCCN3CCC(NC(=O)c4cc5c(cc4Cl)SCC(=O)N5)CC3)nc2c1` [Example 37, 7-chloro-3-oxo-3,4-dihydro-2H-benzo[1,4]thiazine-6-carboxylic acid {1-[2-(7-methoxy-quinoxalin-2-ylsulfanyl)-ethyl]-piperidin-4-yl}-amide], the MIC (with Escherichia coli; with Staphylococcus aureus; in assay [1]; in the assay with Streptococcus pneumoniae; in assay [2]; in assay [3]) was no more than 2 µg/mL throughout. The compound also had an MIC in assay [4] of no more than 4 µg/mL.
With `COc1ccc2ncc(SCCN3CCC(NCc4ccc5c(n4)NC(=O)CO5)CC3)nc2c1` [Example 45, 6-({1-[2-(7-methoxy-quinoxalin-2-ylsulfanyl)-ethyl]-piperidin-4-ylamino}-methyl)-4H-pyrido[3,2-b][1,4]oxazin-3-one], the minimal inhibitory concentration (MIC) (with Escherichia coli; with Staphylococcus aureus; in assay [1]; in the assay on Streptococcus pneumoniae; in assay [2]; in assay [3]) was no more than 2 µg/mL in each case. Besides, in assay [4], the MIC was no more than 4 µg/mL.
As for `COc1ccc2ncc(SCCN3CCC(NCc4ccc5c(c4)NC(=O)CS5)CC3)nc2c1` [Example 46, 6-({1-[2-(7-methoxy-quinoxalin-2-ylsulfanyl)-ethyl]-piperidin-4-ylamino}-methyl)-4H-benzo[1,4]thiazin-3-one], the MIC (in the assay on Escherichia coli; in the assay with Staphylococcus aureus; in assay [1]; in the assay on Streptococcus pneumoniae; in assay [2]; in assay [3]) was no more than 2 µg/mL each time. In assay [4], this compound returned an MIC of no more than 4 µg/mL.
With `COc1ccc2ncc(SCCN3CCC(NCc4cc5c(cc4Cl)SCC(=O)N5)CC3)nc2c1` [Example 48, 7-chloro-6-({1-[2-(7-methoxy-quinoxalin-2-ylsulfanyl)-ethyl]-piperidin-4-ylamino}-methyl)-4H-benzo[1,4]thiazin-3-one], the MIC (in the assay with Escherichia coli; in the assay with Staphylococcus aureus; in assay [1]; with Streptococcus pneumoniae; in assay [2]; in assay [3]) was no more than 2 µg/mL each time. Moreover, in assay [4], the MIC is no more than 4 µg/mL.
Take `COc1ccc2ncc(SCCN3CCC(NCc4cc5c(cc4Cl)SCCN5)CC3)nc2c1` [Example 49, (7-chloro-3,4-dihydro-2H-benzo[1,4]thiazin-6-ylmethyl)-{1-[2-(7-methoxy-quinoxalin-2-ylsulfanyl)-ethyl]-piperidin-4-yl}-amine]: the MIC is 4 µg/mL (≈ 7.75 µM) with Escherichia coli; no more than 2 µg/mL in the assay with Staphylococcus aureus; no more than 2 µg/mL in assay [1]; no more than 2 µg/mL in the assay on Streptococcus pneumoniae; no more than 2 µg/mL in assay [2]; no more than 2 µg/mL in assay [3]. Further, in assay [4], the MIC was no more than 4 µg/mL.
Regarding `COc1ccc2ncc(SCCN3CCC(NC(=O)c4ccc5c(n4)NC(=O)CS5)CC3)nc2c1` [Example 50, 3-oxo-3,4-dihydro-2H-pyrido[3,2-b][1,4]thiazine-6-carboxylic acid {1-[2-(7-methoxy-quinoxalin-2-ylsulfanyl)-ethyl]-piperidin-4-yl}-amide], the MIC was 4 µg/mL (≈ 7.83 µM) in the assay with Escherichia coli; no more than 2 µg/mL with Staphylococcus aureus; no more than 2 µg/mL in assay [1]; no more than 2 µg/mL in the assay with Streptococcus pneumoniae; no more than 2 µg/mL in assay [2]; no more than 2 µg/mL in assay [3]. In assay [4], the MIC is no more than 4 µg/mL.
Regarding `COc1ccc2ncc(SCCN3CCC(NC(=O)c4ccc5c(c4)NC(=O)CS5)CC3)cc2c1` [Example 53, 3-oxo-3,4-dihydro-2H-benzo[1,4]thiazine-6-carboxylic acid {1-[2-(6-methoxy-quinolin-3-ylsulfanyl)-ethyl]-piperidin-4-yl}-amide], the MIC was 4 µg/mL (≈ 7.86 µM) in the assay with Escherichia coli; no more than 2 µg/mL in the assay on Staphylococcus aureus; no more than 2 µg/mL in assay [1]; no more than 2 µg/mL in the assay with Streptococcus pneumoniae; no more than 2 µg/mL in assay [2]; no more than 2 µg/mL in assay [3]. Moreover, the MIC in assay [4] was no more than 4 µg/mL.
